Measured values as given in patent US8802597B2, “Herbicidal pyrimidines” (E I du Pont de Nemours and Company, priority 2003, dated 2014).
Where two headings read alike, the source gives them in different places.

Tests used:
Assay type in all cases: in vivo
[1] = tested on: blackgrass (Alopecurus myosuroides); experiment: Test B postemergence; settings: Alopecurus myosuroides, post-emergence
Outline: (§1)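 Visual injury scored 0 (no effect) to 100 (complete control) versus untreated controls after 13 to 15 days in greenhouse. Treatments were pre- or postemergence sprays of surfactant-containing solvent formulations; postemergence plants at 1- to 4-leaf stage, 2 to 18 cm.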

wild oat (Avena fatua) = experiment: Test B postemergence; settings: Avena fatua, post-emergence
Outline: as §1

[2] = tested on: umbrella sedge (Cyperus difformis); experiment: Test B flooded paddy test; settings: Cyperus difformis, Flood, 1000 g ai/ha; scale 0 to 100; read-out: Plant response rating, Sedge, Umbrella
Outline: (§2)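 Rice, umbrella sedge, duck salad and barnyardgrass grown to 2-leaf stage under flooded paddy conditions and treated with formulated test chemicals. Kept in greenhouse 13–15 days, then visually rated against untreated controls on a 0–100 scale (0 no effect, 100 complete control).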

[3] = tested on: duck salad (Heteranthera limosa); experiment: Test B flooded paddy test; settings: Heteranthera limosa, Flood, 1000 g ai/ha; scale 0 to 100; read-out: Plant response rating, Ducksalad
Outline: as §2

[4] = tested on: barnyardgrass (Echinochloa crus-galli); experiment: Test B flooded paddy test; settings: Echinochloa crus-galli, Flood, 1000 g ai/ha; scale 0 (no effect) to 100 (complete control); read-out: Plant response rating, Barnyardgrass
Outline: as §2

rice (Oryza sativa) = experiment: Test B flooded paddy test; settings: Oryza sativa, Flood, 1000 g ai/ha; scale 0 to 100; read-out: Plant response rating, Rice
Outline: as §2

[5] = tested on: lambsquarters (Chenopodium album); experiment: Test B pre/postemergence; settings: Chenopodium album; for pest or weed control at 125 g/ha: 125 g ai/ha; for pest or weed control at 500 g/ha: 500 g ai/ha
Outline: as §1

[6] = tested on: morningglory (Ipomoea coccinea); experiment: Test B pre/postemergence; settings: Ipomoea; for pest or weed control at 125 g/ha: 125 g ai/ha; for pest or weed control at 500 g/ha: 500 g ai/ha
Outline: as §1

[7] = tested on: wheat (Triticum aestivum); experiment: Test B pre/postemergence; settings: Triticum aestivum; for plant injury at 125 g/ha: 125 g ai/ha; for plant injury at 500 g/ha: 500 g ai/ha
Outline: as §1

corn (Zea mays) = experiment: Test B pre/postemergence; settings: Zea mays
Outline: as §1

[8] = tested on: pigweed (Amaranthus retroflexus); experiment: Test B pre/postemergence; settings: Amaranthus retroflexus; for pest or weed control at 125 g/ha: 125 g ai/ha; for pest or weed control at 500 g/ha: 500 g ai/ha
Outline: as §1

[9] = tested on: crabgrass (Digitaria sanguinalis); experiment: Test B pre/postemergence; settings: Digitaria sanguinalis; for pest or weed control at 125 g/ha: 125 g ai/ha; for pest or weed control at 500 g/ha: 500 g ai/ha
Outline: as §1

[10] = tested on: velvetleaf (Abutilon theophrasti); experiment: Test B pre/postemergence; settings: Abutilon theophrasti; for pest or weed control at 125 g/ha: 125 g ai/ha; for pest or weed control at 500 g/ha: 500 g ai/ha
Outline: as §1

[11] = tested on: barnyardgrass (Echinochloa crus-galli); experiment: Test B pre/postemergence; settings: Echinochloa crus-galli; for pest or weed control at 125 g/ha: 125 g ai/ha; for pest or weed control at 500 g/ha: 500 g ai/ha
Outline: as §1

[12] = tested on: Surinam grass (Brachiaria decumbens); experiment: Test B pre/postemergence; settings: Urochloa decumbens; for pest or weed control at 125 g/ha: 125 g ai/ha; for pest or weed control at 500 g/ha: 500 g ai/ha
Outline: as §1

[13] = tested on: giant foxtail (Setaria faberii); experiment: Test B pre/postemergence; settings: Setaria faberi; for pest or weed control at 125 g/ha: 125 g ai/ha; for pest or weed control at 500 g/ha: 500 g ai/ha
Outline: as §1

[14] = tested on: cocklebur (Xanthium strumarium); experiment: Test B pre/postemergence; settings: Xanthium strumarium; for pest or weed control at 125 g/ha: 125 g ai/ha; for pest or weed control at 500 g/ha: 500 g ai/ha
Outline: as §1

With `Nc1nc(C2CC2)nc(C=O)c1F` [Compound 24] the pest or weed control at 125 g/ha ([1]; 125 g ai/ha, scale 0 to 100 (0 no effect, 100 complete control), read-out: Blackgrass plant response rating) was 0%, the pest or weed control at 500 g/ha ([1]; 500 g ai/ha, scale 0 to 100, read-out: Plant response rating, Blackgrass) was 10% and the pest or weed control at 125 g/ha (wild oat (Avena fatua); 125 g ai/ha, scale 0 to 100 (0 no effect, 100 complete control), read-out: Oat, Wild plant response rating) was 0%. The pest or weed control at 500 g/ha (wild oat (Avena fatua); 500 g ai/ha, scale 0 to 100, read-out: Plant response rating, Oat, Wild) was 0%, the pest or weed control at 1000 g/ha [2] was 20% and the pest or weed control at 1000 g/ha [3] was 0%. For the same molecule, the pest or weed control at 1000 g/ha [4] was 0%, the plant injury at 1000 g/ha (rice (Oryza sativa)) was 10% and the pest or weed control at 125 g/ha ([5]; post-emergence, Postemergence, scale 0 to 100 (0 no effect, 100 complete control), read-out: Lambsquarters plant response rating) was 70%. It also gave a pest or weed control at 500 g/ha ([5]; post-emergence, Postemergence, scale 0 to 100, read-out: Plant response rating, Lambsquarters) of 80%, a pest or weed control at 125 g/ha ([5]; pre-emergence, Preemergence, scale 0 to 100 (0 no effect, 100 complete control), read-out: Plant response rating, Lambsquarters) of 70% and a pest or weed control at 500 g/ha ([5]; pre-emergence, Preemergence, scale 0 to 100 (0 no effect, 100 complete control), read-out: Lambsquarters plant response rating) of 90%. For the same molecule, the pest or weed control at 125 g/ha ([6]; post-emergence, Postemergence, scale 0 to 100 (0 no effect, 100 complete control), read-out: Morningglory plant response rating) was 60%, the pest or weed control at 500 g/ha ([6]; post-emergence, Postemergence, scale 0 to 100, read-out: Plant response rating, Morningglory) was 90% and the pest or weed control at 125 g/ha ([6]; pre-emergence, Preemergence, scale 0 to 100 (0 no effect, 100 complete control), read-out: Plant response rating, Morningglory) was 50%. It also gave a pest or weed control at 500 g/ha ([6]; pre-emergence, Preemergence, scale 0 to 100 (0 no effect, 100 complete control), read-out: Morningglory plant response rating) of 90%, a plant injury at 125 g/ha ([7]; post-emergence, Postemergence, scale 0 to 100 (0 no effect, 100 complete control), read-out: Wheat plant response rating) of 0% and a plant injury at 500 g/ha ([7]; post-emergence, Postemergence, scale 0 to 100, read-out: Plant response rating, Wheat) of 0%. For the same molecule, the plant injury at 125 g/ha ([7]; pre-emergence, Preemergence, scale 0 to 100 (0 no effect, 100 complete control), read-out: Plant response rating, Wheat) was 30%, the plant injury at 500 g/ha ([7]; pre-emergence, Preemergence, scale 0 to 100 (0 no effect, 100 complete control), read-out: Wheat plant response rating) was 70% and the plant injury at 125 g/ha (corn (Zea mays); post-emergence, Postemergence, 125 g ai/ha, scale 0 to 100 (0 no effect, 100 complete control), read-out: Corn plant response rating) was 0%. The Corn plant response rating (crop injury, 0 = no effect, 100 = complete kill) at 500 g/ha (corn (Zea mays); post-emergence, Postemergence, 500 g ai/ha, scale 0 to 100) was 10%, the plant injury at 500 g/ha (corn (Zea mays); pre-emergence, Preemergence, 500 g ai/ha, scale 0 to 100 (0 no effect, 100 complete control), read-out: Corn plant response rating) was 0% and the pest or weed control at 125 g/ha ([8]; post-emergence, Postemergence, scale 0 to 100 (0 no effect, 100 complete control), read-out: Pigweed plant response rating) was 70%. It also gave a pest or weed control at 500 g/ha ([8]; post-emergence, Postemergence, scale 0 to 100, read-out: Plant response rating, Pigweed) of 80%, a pest or weed control at 125 g/ha ([8]; pre-emergence, Preemergence, scale 0 to 100 (0 no effect, 100 complete control), read-out: Plant response rating, Pigweed) of 80% and a pest or weed control at 500 g/ha ([8]; pre-emergence, Preemergence, scale 0 to 100 (0 no effect, 100 complete control), read-out: Pigweed plant response rating) of 90%. It also gave a pest or weed control at 125 g/ha ([9]; post-emergence, Postemergence, scale 0 to 100 (0 no effect, 100 complete control), read-out: Crabgrass plant response rating) of 20%, a pest or weed control at 500 g/ha ([9]; post-emergence, Postemergence, scale 0 to 100, read-out: Plant response rating, Crabgrass) of 40% and a pest or weed control at 125 g/ha ([9]; pre-emergence, Preemergence, scale 0 to 100 (0 no effect, 100 complete control), read-out: Plant response rating, Crabgrass) of 60%. It also gave a pest or weed control at 500 g/ha ([9]; pre-emergence, Preemergence, scale 0 to 100 (0 no effect, 100 complete control), read-out: Crabgrass plant response rating) of 80%, a pest or weed control at 125 g/ha ([10]; post-emergence, Postemergence, scale 0 to 100 (0 no effect, 100 complete control), read-out: Velvetleaf plant response rating) of 40% and a pest or weed control at 500 g/ha ([10]; post-emergence, Postemergence, scale 0 to 100, read-out: Plant response rating, Velvetleaf) of 50%. The pest or weed control at 125 g/ha ([10]; pre-emergence, Preemergence, scale 0 to 100 (0 no effect, 100 complete control), read-out: Plant response rating, Velvetleaf) was 50%, the pest or weed control at 500 g/ha ([10]; pre-emergence, Preemergence, scale 0 to 100 (0 no effect, 100 complete control), read-out: Velvetleaf plant response rating) was 80% and the pest or weed control at 125 g/ha ([11]; post-emergence, Postemergence, scale 0 to 100 (0 no effect, 100 complete control), read-out: Barnyardgrass plant response rating) was 0%. For the same molecule, the pest or weed control at 500 g/ha ([11]; post-emergence, Postemergence, scale 0 to 100, read-out: Plant response rating, Barnyardgrass) was 10%, the pest or weed control at 125 g/ha ([11]; pre-emergence, Preemergence, scale 0 to 100 (0 no effect, 100 complete control), read-out: Plant response rating, Barnyardgrass) was 0% and the pest or weed control at 500 g/ha ([11]; pre-emergence, Preemergence, scale 0 to 100 (0 no effect, 100 complete control), read-out: Barnyardgrass plant response rating) was 20%. The pest or weed control at 125 g/ha ([12]; post-emergence, Postemergence, scale 0 to 100 (0 no effect, 100 complete control), read-out: Surinam Grass plant response rating) was 0%, the pest or weed control at 500 g/ha ([12]; post-emergence, Postemergence, scale 0 to 100, read-out: Plant response rating, Surinam Grass) was 10% and the pest or weed control at 125 g/ha ([12]; pre-emergence, Preemergence, scale 0 to 100 (0 no effect, 100 complete control), read-out: Plant response rating, Surinam Grass) was 10%. The pest or weed control at 500 g/ha ([12]; pre-emergence, Preemergence, scale 0 to 100 (0 no effect, 100 complete control), read-out: Surinam Grass plant response rating) was 50%, the pest or weed control at 125 g/ha ([13]; post-emergence, Postemergence, scale 0 to 100 (0 no effect, 100 complete control), read-out: Foxtail, Giant plant response rating) was 20% and the pest or weed control at 500 g/ha ([13]; post-emergence, Postemergence, scale 0 to 100, read-out: Plant response rating, Foxtail, Giant) was 30%. For the same molecule, the pest or weed control at 125 g/ha ([13]; pre-emergence, Preemergence, scale 0 to 100 (0 no effect, 100 complete control), read-out: Plant response rating, Foxtail, Giant) was 10%, the pest or weed control at 500 g/ha ([13]; pre-emergence, Preemergence, scale 0 to 100 (0 no effect, 100 complete control), read-out: Foxtail, Giant plant response rating) was 60% and the pest or weed control at 125 g/ha ([14]; post-emergence, Postemergence, scale 0 to 100 (0 no effect, 100 complete control), read-out: Cocklebur plant response rating) was 50%. The pest or weed control at 500 g/ha ([14]; post-emergence, Postemergence, scale 0 to 100, read-out: Plant response rating, Cocklebur) was 70%, the pest or weed control at 125 g/ha ([14]; pre-emergence, Preemergence, scale 0 to 100 (0 no effect, 100 complete control), read-out: Plant response rating, Cocklebur) was 80% and the pest or weed control at 500 g/ha ([14]; pre-emergence, Preemergence, scale 0 to 100 (0 no effect, 100 complete control), read-out: Cocklebur plant response rating) was 90%.
